Our source for the IC50 values is US12545685B2 (Daiichi Sankyo Company, Limited, priority 2011, dated 2026).

Each structure is given as a SMILES string.

By IC50 is commonly meant the concentration needed to halve the response being measured. A lower IC50 goes with greater potency.

The test deals with T1, Mdm2/p53 binding (GST-Mdm2 / His-p53) (Homo sapiens, UniProt Q00987, L33E).
T1 construct: Mdm2 partial protein having Mdm2 amino acids at positions 25 to 108
T1 sequence (Q00987 25-108 L33E): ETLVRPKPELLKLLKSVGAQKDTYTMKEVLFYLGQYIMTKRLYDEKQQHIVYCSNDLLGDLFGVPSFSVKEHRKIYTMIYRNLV
In words: Mdm2/p53 binding assay (HTRF, His-p53 and GST-Mdm2). The following applies: His-p53 (aa 1-132) and GST-Mdm2 (aa 25-108, L33E) 6.25 nM each; 25°C, 1 hour; values given as ranges. The protocol:
A protein dilution containing 6.25 nM each of His-p53 (fusion protein of a p53 partial protein having p53 amino acids at positions 1 to 132, with a histidine protein) and GST-Mdm2 (fusion protein of an Mdm2 partial protein having Mdm2 amino acids at positions 25 to 108 with leucine residue 33 substituted by glutamic acid, with glutathione transferase) proteins was prepared using a protein buffer solution (20 mM HEPES pH 7.4, 150 mM NaCl, 0.1% BSA). This protein dilution was added in an amount of 8 μl/well to a 384-well plate (384-well low volume NBC, Corning Inc., catalog No: 3676).
Next, a test compound was diluted with DMSO to produce a protein buffer solution containing 10% dilution, and this buffer solution was added in an amount of 4 μl/well to the plate.
Subsequently, a solution containing an XL665-labeled anti-His antibody (HTRF monoclonal anti-6HIS antibody labeled with XL665 (catalog No: 61HISXLB), Schering/Cisbio Bioassays) and a europium (Eu)-labeled anti-GST antibody (HTRF monoclonal anti-GST antibody labeled with europium cryptate, Schering/Cisbio Bioassays, catalog No: 61GSTKLB) at concentrations of 2.5 μg/ml and 0.325 μg/ml, respectively, was prepared using an antibody diluting buffer solution (20 mM HEPES pH 7.4, 150 mM NaCl, 0.1% BSA, 0.5 M KF). These dilutions were added in an amount of 8 μl/well (total reaction solution volume: 20 μl/well). Then the plate was incubated at 25° ° C. for 1 hour.
Time-resolved fluorescence at 620 and 665 nm was measured at an excitation wavelength of 320 nm using a plate reader (ARVOsx, PerkinElmer Co., Ltd. or PHERAstar, BMG LABTECH). Ratio (R) was calculated using the measured values (RFU 620 nm and RFU 665 nm) according to the following formula: […]
BI: measured value at 665 nm of reaction solution (only each buffer solution) nonsupplemented with each protein, the compound, and the antibodies
A and D: each measured value at 665 nm and 620 nm of reaction solution supplemented with only Eu-labeled anti-GST antibody solution
The R value calculated from the well supplemented with His-p53, GST-Mdm2, the test compound, and each antibody was defined as R (sample). The R value calculated from the well supplemented with His-p53, GST-Mdm2, and each antibody but without the test compound was defined as R (control). The R value calculated from the well supplemented with GST-Mdm2 the test compound, and each antibody but without His-p53 was defined as R (background). T/C was calculated from the formula shown below. An IC50 value for Mdm2/p53 binding was calculated by sigmoid fitting.
(In general: In TR-FRET formats the signal depends on donor and acceptor labels being close together.)
`CC(=O)Nc1cc(Cl)cc([C@H]2[C@H](C(=O)N[C@H]3CC[C@H](O)CC3)NC3(CCC(C)(C)CC3)[C@@]23C(=O)Nc2cc(Cl)ccc23)c1` [Example 37, (3′R, 4′R, S′R)-4′-(3-acetamide-5-chlorophenyl)-6″-chloro-N-(trans-4-hydroxycyclohexyl)-4,4-dimethyl-2″-oxo-1″,2″-dihydrodispiro[cyclohexane-1,2′-pyrrolidine-3′,3″-indole]-5′-carboxamide] registered an IC50 of 50 to 100 nM.
Then `CC1(C)CCC2(CC1)N[C@@H](C(=O)N[C@H]1CC[C@](O)(CO)CC1)[C@H](c1ccnc(Cl)c1F)[C@]21C(=O)Nc2cc(Cl)ccc21` [Example 39], with 50 to 100 nM; and `CC1(C)CCC2(CC1)N[C@@H](C(=O)N[C@H]1CC[C@H](c3noc(=O)[nH]3)CC1)[C@H](c1ccnc(Cl)c1F)[C@]21C(=O)Nc2cc(Cl)ccc21` [Example 41, (3′R, 4′S,5′R)-6″-chloro-4′-(2-chloro-3-fluoropyridin-4-yl)-4,4-dimethyl-2″-oxo-N-[trans-4-(5-oxo-4,5-dihydro-1,2,4-oxadiazol-3-yl)cyclohexyl]-1″,2″-dihydrodispiro[cyclohexane-1,2′-pyrrolidine-3′,3″-indole]-5′-carboxamide], with 1 to 50 nM.
Then `CC1(C)CCC2(CC1)N[C@@H](C(=O)N[C@H]1CO[C@H](CO)[C@@H](O)C1)[C@H](c1cccc(Cl)c1F)[C@]21C(=O)Nc2cc(Cl)ccc21` [Example 42, (3′R, 4′S,5′R)-6″-chloro-4′-(3-chloro-2-fluorophenyl)-N-[(3R,5S,6R)-5-hydroxy-6-(hydroxymethyl)tetrahydro-2H-pyran-3-yl]-4,4-dimethyl-2″-oxo-1″,2″-dihydrodispiro[cyclohexane-1,2′-pyrrolidine-3′,3″-indole]-5′-carboxamide], with 1 to 50 nM.
To `CO[C@H]1C[C@@H](NC(=O)[C@@H]2NC3(CCC(C)(C)CC3)[C@@]3(C(=O)Nc4cc(Cl)ccc43)[C@H]2c2cccc(Cl)c2F)CO[C@@H]1CO` [Example 43, (3′R, 4′S,5′R)-6″-chloro-4′-(3-chloro-2-fluorophenyl)-N-[(3R,5S,6R)-6-(hydroxymethyl)-5-methoxytetrahydro-2H-pyran-3-yl]-4,4-dimethyl-2″-oxo-1″,2″-dihydrodispiro[cyclohexane-1,2′-pyrrolidine-3′,3″-indole]-5′-carboxamide] belongs 100 to 500 nM.
`CC(=O)N(CCO)C[C@@H]1CC[C@@H](NC(=O)[C@@H]2NC3(CCC(C)(C)CC3)[C@@]3(C(=O)Nc4cc(Cl)ccc43)[C@H]2c2ccnc(Cl)c2F)CO1` [Example 44] yielded an IC50 of 1 to 50 nM.
To `CO[C@H]1C[C@@H](NC(=O)[C@@H]2NC3(CCC(C)(C)CC3)[C@@]3(C(=O)Nc4cc(Cl)ccc43)[C@H]2c2ccnc(Cl)c2F)CO[C@@H]1CO` [Example 45, (3′R, 4′S,5′R)-6″-chloro-4′-(2-chloro-3-fluoropyridin-4-yl)-N-[(3R,5S,6R)-6-(hydroxymethyl)-5-methoxytetrahydro-2H-pyran-3-yl]-4,4-dimethyl-2″-oxo-1″,2″-dihydrodispiro[cyclohexane-1,2′-pyrrolidine-3′,3″-indole]-5′-carboxamide] belongs 50 to 100 nM.
Consider `CC1(C)CCC2(CC1)N[C@@H](C(=O)N[C@@H]1CC[C@@H](C(C)(C)O)OC1)[C@H](c1cccc(Cl)c1F)[C@]21C(=O)Nc2cc(Cl)ccc21` [Example 46, (3′R, 4′S,5′R)-6″-chloro-4′-(3-chloro-2-fluorophenyl)-N-[(3R,6S)-6-(1-hydroxy-1-methylethyl)tetrahydro-2H-pyran-3-yl]-4,4-dimethyl-2′-oxo-1″; 2″-dihydrodispiro[cyclohexane-1,2′-pyrrolidine-3′,3″-indole]-5′-carboxamide], for which the IC50 lay in the range of 1 to 50 nM.
Then `CC1(C)CCC2(CC1)N[C@@H](C(=O)N[C@H]1CC[C@H](c3noc(=O)[nH]3)CC1)[C@H](c1cccc(Cl)c1F)[C@]21C(=O)Nc2cc(Cl)ccc21` [Example 48, (3′S,4′S,5′R)-6′-chloro-4′-(3-chloro-2-fluorophenyl)-4,4-dimethyl-2″-oxo-N-[trans-4-(5-oxo-4,5-dihydro-1,2,4-oxadiazol-3-yl)cyclohexyl]-1″,2″-dihydrodispiro[cyclohexane-1,2′-pyrrolidine-3′,3″-indole]-5′-carboxamide], with 1 to 50 nM.
Then `CC1(C)CCC2(CC1)N[C@@H](C(=O)N[C@@H]1CC[C@@H](c3nnco3)OC1)[C@H](c1ccnc(Cl)c1F)[C@]21C(=O)Nc2nc(Cl)ccc21` [Example 50, (3′R, 4′S,5′R)-6″-chloro-4′-(2-chloro-3-fluoropyridin-4-yl)-4,4-dimethyl-N-[(3R,6S)-6-(1,3,4-oxadiazol-2-yl)tetrahydro-2H-pyran-3-yl]-2″-oxo-1″,2″-dihydrodispiro[cyclohexane-1,2′-pyrrolidine-3′,3″-pyrrolo[2,3-b]pyridine]-3′-carboxamide], with 50 to 100 nM.
Compound `CC1(C)CCC2(CC1)N[C@@H](C(=O)N[C@@H]1CC[C@@H](c3nnco3)OC1)[C@H](c1cccc(Cl)c1F)[C@]21C(=O)Nc2nc(Cl)ccc21` [Example 52, (3′R, 4′S,5′R)-6″-chloro-4′-(3-chloro-2-fluorophenyl)-4,4-dimethyl-N-[(3R,6S)-6-(1,3,4-oxadiazol-2-yl)tetrahydro-2H-pyran-3-yl]-2″-oxo-1″,2″-dihydrodispiro[cyclohexane-1,2′-pyrrolidine-3′,3″-pyrrolo[2,3-b]pyridine]-5′-carboxamide] gave an IC50 of 50 to 100 nM.
To `CC1(C)CCC2(CC1)N[C@@H](C(=O)N[C@@H]1CC[C@@H](c3n[nH]c(=O)o3)OC1)[C@H](c1cccc(Cl)c1F)[C@]21C(=O)Nc2nc(Cl)ccc21` [Example 55, (3′R, 4′S,5′R)-6″-chloro-4′-(3-chloro-2-fluorophenyl)-4,4-dimethyl-2″-oxo-N-[(3R,6S)-6-(5-oxo-4,5-dihydro-1,3,4-oxadiazol-2-yl)tetrahydro-2H-pyran-3-yl]-1″,2″-dihydrodispiro[cyclohexane-1,2′-pyrrolidine-3′,3″-pyrrolo[2,3-b]pyridine]-5′-carboxamide] belongs 1 to 50 nM.
Then `CC1(C)CCC2(CC1)N[C@@H](C(=O)N[C@@H]1CC[C@@H](c3n[nH]c(=O)o3)OC1)[C@H](c1ccnc(Cl)c1)[C@]21C(=O)Nc2cc(Cl)ccc21` [Example 56, (3′R, 4′R, 5′R)-6″-chloro-4′-(2-chloropyridin-4-yl)-4,4-dimethyl-2″-Oxo-N-[(3R,6S)-6-(5-oxo-4,5-dihydro-1,3,4-oxadiazol-2-yl)tetrahydro-2H-pyran-3-yl]-1″,2″-dihydrodispiro[cyclohexane-1,2′-pyrrolidine-3′,3″-indole]-5′-carboxamide], with 1 to 50 nM; and `CO[C@H]1C[C@@H](NC(=O)[C@@H]2NC3(CCC(C)(C)CC3)[C@@]3(C(=O)Nc4nc(Cl)ccc43)[C@H]2c2cccc(Cl)c2F)CO[C@@H]1CO` [Example 58, (3′R, 4′S,5′R)-6″-chloro-4′-(3-chloro-2-fluorophenyl)-N-[(3R,5S,6R)-6-(hydroxymethyl)-5-methoxytetrahydro-2H-pyran-3-yl]-4,4-dimethyl-2″-oxo-1″,2″-dihydrodispiro[cyclohexane-1,2′-pyrrolidine-3′,3″-pyrrolo[2,3-b]pyridine]-5′-carboxamide], with 50 to 100 nM.
